Reference: the NIST ThermoML archive (doi:10.1016/j.jct.2016.02.016)

Assays:
[1] = refractive index (Na D-line) (dimensionless); xn = mol fraction of the nth substance listed; conditions: 100 kPa, Liquid, Standard Abbe refractometry
[2] = xn = mol fraction of the nth substance listed; conditions: 100 kPa, Liquid; for speed of sound: Frequency=3 MHz, Sing-around technique in a fixed-path interferometer; for mass density: Vibrating tube method

CCCC(C)=O [pentan-2-one] + CN(C)C=O
Conditions | mass density, [2] [kg/m3] | refractive index, [1] | speed of sound, [2] [m/s]
293.15 K, x2 = 0 | 806.83 | 1.39026 | 1232.4
293.15 K, x2 = 0.056 | – | 1.39208 | –
293.15 K, x2 = 0.1141 | 819.616 | 1.39408 | 1254.3
293.15 K, x2 = 0.1516 | 823.961 | – | 1261.7
293.15 K, x2 = 0.1531 | – | 1.39541 | –
293.15 K, x2 = 0.2063 | 830.491 | 1.39735 | 1273
293.15 K, x2 = 0.2588 | 836.933 | 1.39918 | 1284
293.15 K, x2 = 0.3089 | 843.115 | 1.40106 | 1294.7
293.15 K, x2 = 0.3594 | 849.625 | 1.40295 | 1303.2
293.15 K, x2 = 0.4006 | 855.077 | 1.40453 | 1315.3
293.15 K, x2 = 0.4488 | 861.489 | 1.40643 | 1326.3
293.15 K, x2 = 0.4999 | 868.584 | 1.40845 | 1338.5
293.15 K, x2 = 0.5466 | 875.212 | 1.41036 | 1350
293.15 K, x2 = 0.5976 | – | 1.41245 | –
293.15 K, x2 = 0.5987 | 882.775 | – | 1363.1
293.15 K, x2 = 0.6581 | 891.66 | 1.41495 | 1378.4
293.15 K, x2 = 0.6992 | – | 1.41668 | –
293.15 K, x2 = 0.7528 | 906.494 | 1.41906 | 1404.2
293.15 K, x2 = 0.8029 | 914.576 | 1.42129 | 1418.1
293.15 K, x2 = 0.8461 | 921.84 | 1.42325 | 1430.7
293.15 K, x2 = 0.9017 | 931.277 | 1.42583 | 1446.8
293.15 K, x2 = 0.9496 | 939.704 | 1.42811 | 1460.9
298.15 K, x2 = 0 | 801.99 | 1.38793 | 1211.9
298.15 K, x2 = 0.0568 | 808.267 | 1.38979 | 1222.8
298.15 K, x2 = 0.1 | 813.221 | 1.39128 | 1231.3
298.15 K, x2 = 0.1526 | 819.25 | 1.3931 | 1241.7
298.15 K, x2 = 0.1895 | 823.621 | 1.39442 | 1249.2
298.15 K, x2 = 0.2545 | 831.549 | 1.3967 | 1262.9
298.15 K, x2 = 0.3298 | 841.051 | 1.39955 | 1279.3
298.15 K, x2 = 0.3502 | 843.666 | 1.40029 | 1283.9
298.15 K, x2 = 0.3956 | 849.557 | 1.40203 | 1294
298.15 K, x2 = 0.4567 | 857.796 | 1.40441 | 1308.5
298.15 K, x2 = 0.5084 | 865.012 | 1.4065 | 1320.8
298.15 K, x2 = 0.557 | 871.899 | 1.40855 | 1332.9
298.15 K, x2 = 0.6022 | 878.552 | 1.41039 | 1344.4
298.15 K, x2 = 0.6448 | 884.967 | 1.41217 | 1355.5
298.15 K, x2 = 0.7117 | 895.208 | 1.41498 | 1373.4
298.15 K, x2 = 0.7504 | 901.333 | – | 1384
298.15 K, x2 = 0.7511 | – | 1.41672 | –
298.15 K, x2 = 0.8027 | 909.784 | 1.41905 | 1398.7
298.15 K, x2 = 0.849 | 917.57 | 1.42117 | 1412.1
298.15 K, x2 = 0.9019 | 926.592 | 1.42364 | 1427.6
298.15 K, x2 = 0.9429 | 933.872 | 1.42557 | 1440.1
303.15 K, x2 = 0 | 796.73 | 1.38523 | 1191.7
303.15 K, x2 = 0.0581 | 803.204 | – | 1203
303.15 K, x2 = 0.0681 | – | 1.38748 | –
303.15 K, x2 = 0.1088 | 808.974 | – | 1212.9
303.15 K, x2 = 0.113 | – | 1.38906 | –
303.15 K, x2 = 0.1576 | – | 1.39062 | –
303.15 K, x2 = 0.16 | 815.007 | – | 1223.3
303.15 K, x2 = 0.1979 | – | 1.39212 | –
303.15 K, x2 = 0.2044 | 820.314 | – | 1232.5
303.15 K, x2 = 0.2343 | – | 1.39347 | –
303.15 K, x2 = 0.262 | 827.319 | – | 1244.6
303.15 K, x2 = 0.3046 | 832.689 | – | 1253.9
303.15 K, x2 = 0.3128 | – | 1.39635 | –
303.15 K, x2 = 0.3506 | 838.634 | – | 1264.1
303.15 K, x2 = 0.3603 | – | 1.3982 | –
303.15 K, x2 = 0.4014 | 845.319 | – | 1275.7
303.15 K, x2 = 0.4156 | – | 1.40034 | –
303.15 K, x2 = 0.4485 | – | 1.40167 | –
303.15 K, x2 = 0.482 | 856.31 | – | 1294.7
303.15 K, x2 = 0.4954 | – | 1.40355 | –
303.15 K, x2 = 0.5006 | 858.884 | – | 1299.1
303.15 K, x2 = 0.5407 | 864.591 | – | 1309
303.15 K, x2 = 0.5505 | – | 1.4058 | –
303.15 K, x2 = 0.5986 | – | 1.40783 | –
303.15 K, x2 = 0.5989 | 873.078 | – | 1323.9
303.15 K, x2 = 0.6407 | – | 1.40954 | –
303.15 K, x2 = 0.6467 | 880.175 | – | 1336.3
303.15 K, x2 = 0.6949 | 887.598 | – | 1349.2
303.15 K, x2 = 0.6952 | – | 1.41187 | –
303.15 K, x2 = 0.7401 | – | 1.41378 | –
303.15 K, x2 = 0.7518 | 896.616 | – | 1364.8
303.15 K, x2 = 0.7992 | – | 1.41643 | –
303.15 K, x2 = 0.8007 | 904.558 | – | 1378.6
303.15 K, x2 = 0.8527 | 913.274 | – | 1393.6
303.15 K, x2 = 0.8559 | – | 1.41908 | –
303.15 K, x2 = 0.8991 | 921.307 | – | 1407.5
303.15 K, x2 = 0.8994 | – | 1.42109 | –
303.15 K, x2 = 0.9411 | – | 1.42312 | –
303.15 K, x2 = 0.9485 | 929.946 | – | 1422.2
